Results from US10399971B2, “Compound for treating or preventing hyperuricemia or gout” (JIANGSU ATOM BIOSCIENCE AND PHARMACEUTICAL CO., LTD., priority 2015, dated 2019).
Where “and” joins values, the source holds several entries; their conditions need not be identical. Equal values may be shown once. Read-outs that look alike come from different tables or passages of the source.

Assays:
[1] = test system: human normal liver cell line WRL-68; test: Cytotoxicity test on human normal liver cell line WRL-68 (Alamar Blue); type: cell-based; settings: WRL68, WRL-68 cells, 120 h incubation, cell viability, read-out: half inhibitory concentration (IC50) against WRL-68
Experimental: (§1) 2.1 The normal liver cell lines L-02 and WRL-68 were cultured with DMEM culture medium (containing 10% of fetal bovine serum, 100 U/mL of penicillin and 0.1 mg/mL of streptomycin) in an incubator under 5% CO2 at 37° C. until the cell density was about 90%, respectively.
(§2) 2.3 Tested compounds and benzbromarone at different concentration gradients were prepared by using the DMEM culture medium and added into wells at 100 μL/well as compounds wells. The DMEM culture medium was added into wells at 100 μL/well without tested compound as negative control wells.
(§3) This 10× Alamar Blue solution was diluted into 1× Alamar Blue solution with phenol red free DMEM culture medium before use.
(§4) 2.5 The cells were washed with PBS (0.1 M, pH=7.4) twice. The Alamar Blue solution was added into wells at 100 μL/well. 100 μL of Alamar Blue solution was added into wells without cells to serve as blank control wells. The 96-well plate was placed in an incubator under 5% CO2 at 37° C. for 3 h. Each concentration of compound was repeated three times during the test.
(§5) The fluorescence value of the cells containing compound is the F(test compound); the fluorescence value of the cells without compound as blank control is the F(blank control); the fluorescent value of the cells from negative control group is F(negative control). The average value and standard deviation of cell viability of three repeated concentrations was calculated by the following formula: […]
(§6) 2.7 The half inhibitory concentration (IC50) of the compound for the cells L-02 and WRL-68 was obtained from the cell viability by Prism Graph software.

[2] = Acute toxicity of single oral dose in SD rats; settings: for Weight gain rate (%): 14 day compared with 0 day
Description: (§7) Rats were randomly divided into group A1, group B1 and blank control group. Each group has 10 of rats with half male and half female.

[3] = test system: human normal liver cell line L-02; test: Cytotoxicity test on human normal liver cell line L-02 (Alamar Blue); type: cell-based; settings: L02, L-02 cells, 120 h incubation, cell viability, read-out: half inhibitory concentration (IC50) against L-02
Experimental: as §1, §2, §3, §4, §5, §6

[4] = Pharmacokinetics following intravenous and oral administration in SD rats; type: in vivo
Description: Dose formulation preparation for PO: Weight out the required amount of compound 74. Added approximately 70% of 0.5% CMC-Na with stirring, vortexing and sonication to mix well until visually well suspension. Then added the remaining vehicle to target total volume and vortex-mix.
Dose formulation preparation for IV: Weight out the required amount of compound 74. Added appropriate DMSO with sonication until dissolved, then added appropriate HP-β-Cyclodextrin water solution (20%, w/v) with vortexing to mix well.
Species: SD rats (SPF Level); sex: male; source: Sino-British SIPPR/BK Lab Animal Ltd., Shanghai.
The animals that dosed via orally were fasted overnight (10-14 hours) prior to oral administration. Food supply to the animals dosed orally were resumed 4 h post-dose.
Blood samples (approximately 250 μL/sample) were collected via jugular vein at Pre-dose and Post-dose (5 min, 15 min, 30 min, 1 h, 2 h, 4 h, 6 h, 8 h, and 24 h). Blood samples were placed into tubes containing sodium heparin and centrifuged conditions at 8000 rpm for 6 minutes at 2-8° C. to separate plasma from the samples. Plasma sample (50 μL) were transferred to tube, then 250 μL IS solution (200 ng/mL Tolbutamide) was added to it. After vortexing for 1 min and centrifuging for 5 min at 15000 rpm, 200 μL aliquots of supernatant were transferred to 96-well plate for LC-MS/MS analysis. The calibration curve of compound 74 was ranging from 1 to 1000 ng/mL. The LLOQ is 1 ng/mL for plasma.
A non-compartemental module of WinNonlin® Professional 5.2 was used to calculate parameters. The bioavailability was calculated as F %=(Dose(IV)×AUC(0-t)(PO))/(Dose(PO)×AUC(0-t)(IV))×100%.

in vivo = settings: both, SD, rat, po
Description: as §7

[5] = female SD rats (n=5), 74 at 5.0 g/kg, BBR at 0.14 g/kg
[6] = male SD rats (n=5), 74 at 5.0 g/kg, BBR at 0.14 g/kg
[7] = IV 1 mg/kg, individual rats 201-203, 1 mg/kg
[8] = PO 10 mg/kg, individual rats 101-103, 10 mg/kg

For `CCc1nc2ccccn2c1C(=O)c1cc(Br)c(O)c(C#N)c1` [Compound 74, 3-bromo-5-(2-ethylimidazo[1,2-a]pyridine-3-carbonyl)-2-hydroxybenzonitrile hydrogen chloride], the IC50 [1] was > 100 µM, the Death rate ([2]; SD rats, single oral dose, 74 at 5.0 g/kg, BBR at 0.14 g/kg, 10 rats per group, 14 days observation) was 0/10 and the “Weight 0 day (X ± SD)” value [2, 5] was 135.94 ± 5.62 g. The “Weight 7 day (X ± SD)” value [2, 5] was 183.02 ± 11.10 g, the “Weight gain rate (%)” value ([2]; female SD rats (n=5)) was “+53.0%” and the “Weight 14 day (X ± SD)” value [2, 5] was 208.04 ± 11.90 g. For the same compound, the “Weight 0 day (X ± SD)” value [2, 6] was 149.06 ± 5.95 g, the “Weight 7 day (X ± SD)” value [2, 6] was 204.04 ± 21.69 g and the “Weight gain rate (%)” value ([2]; male SD rats (n=5)) was “+73.2%”. The “Weight 14 day (X ± SD)” value [2, 6] was 258.12 ± 17.65 g, the “death of rats in pre-experiment of acute toxicity” value ([2]; pre-experiment, compound 74 at 5 g/kg (highest dose), benzbromarone at 0.14 g/kg) was “did not cause death” and the IC50 [3] was > 100 µM. The “Clz” value ([4]; IV 1 mg/kg, Mean of 3 rats) was 0.10818 L/h/kg, the “AUC(0-t)” value [4, 7] was 9.07684 µg·h/mL and 8.84727 µg·h/mL and the “Clz” value [4, 7] was 0.11023 L/h/kg and 0.10566 L/h/kg and 0.10865 L/h/kg. For the same compound, the “Cmax” value [4, 7] was 6.70553 µg/mL and 6.88521 µg/mL, the “MRT(0-∞)” value [4, 7] was 5.60 h and the “Vz” value [4, 7] was 0.91779 L/kg and 0.93449 L/kg. For the same compound, the “t1/2” value [4, 7] was 6.00 h, the “F (%)” value ([4]; PO 10 mg/kg vs IV 1 mg/kg, from AUC(0-t), individual rats 101-103) was 108.04% and 100.28% and the “AUC(0-t)” value [4, 8] was 96.18883 µg·h/mL and 89.2842 µg·h/mL. The “Cmax” value [4, 8] was 6.97614 µg/mL and 8.25174 µg/mL, the “MRT(0-∞)” value [4, 8] was 6.80 h and 6.00 h and the “Tmax” value [4, 8] was 2.00 h and 6.00 h. For the same compound, the “t1/2” value [4, 8] was 3.00 h and 2.70 h, the half-life ([4]; male, SD, rat, plasma, iv, 1 mg/kg, IV 1 mg/kg, Mean of 3 rats) was 5.8 h and the AUC(0-t) ([4]; male, SD, rat, plasma, iv, 1 mg/kg, IV 1 mg/kg, Mean of 3 rats, read-out: AUC(0-t)) was 8.9 µg·h/mL. The Cmax ([4]; male, SD, rat, plasma, iv, 1 mg/kg, IV 1 mg/kg, Mean of 3 rats, read-out: Cmax) was 6.36 µg/mL, the MRT inf ([4]; male, SD, rat, plasma, iv, 1 mg/kg, IV 1 mg/kg, Mean of 3 rats, read-out: MRT(0-∞)) was 5.5 h and the Tmax ([4]; male, SD, rat, plasma, iv, 1 mg/kg, IV 1 mg/kg, Mean of 3 rats, read-out: Tmax) was 0.1 h. For the same compound, the Vd ([4]; male, SD, rat, plasma, iv, 1 mg/kg, IV 1 mg/kg, Mean of 3 rats, read-out: Vz) was 0.904 L/kg, the half-life ([4]; male, SD, rat, plasma, iv, 1 mg/kg, IV 1 mg/kg, individual rats 201-203) was 5.4 h and the AUC(0-t) ([4]; male, SD, rat, plasma, iv, 1 mg/kg, IV 1 mg/kg, individual rats 201-203, read-out: AUC(0-t)) was 8.79 µg·h/mL. The Cmax ([4]; male, SD, rat, plasma, iv, 1 mg/kg, IV 1 mg/kg, individual rats 201-203, read-out: Cmax) was 5.49 µg/mL, the MRT inf ([4]; male, SD, rat, plasma, iv, 1 mg/kg, IV 1 mg/kg, individual rats 201-203, read-out: MRT(0-∞)) was 5.4 h and the Tmax ([4]; male, SD, rat, plasma, iv, 1 mg/kg, IV 1 mg/kg, individual rats 201-203, read-out: Tmax) was 0.1 h. It also gave a Vd ([4]; male, SD, rat, plasma, iv, 1 mg/kg, IV 1 mg/kg, individual rats 201-203, read-out: Vz) of 0.859 L/kg, a bioavailability ([4]; male, SD, rat, plasma, po, 10 mg/kg, PO 10 mg/kg vs IV 1 mg/kg, from AUC(0-t), Mean of 3 rats) of 103% and a bioavailability ([4]; male, SD, rat, plasma, po, 10 mg/kg, PO 10 mg/kg vs IV 1 mg/kg, from AUC(0-t), individual rats 101-103) of 101%. It also gave a half-life ([4]; male, SD, rat, plasma, po, 10 mg/kg, PO 10 mg/kg, Mean of 3 rats) of 2.9 h, an AUC(0-t) ([4]; male, SD, rat, plasma, po, 10 mg/kg, PO 10 mg/kg, Mean of 3 rats, read-out: AUC(0-t)) of 91.8 µg·h/mL and a Cmax ([4]; male, SD, rat, plasma, po, 10 mg/kg, PO 10 mg/kg, Mean of 3 rats, read-out: Cmax) of 8.14 µg/mL. The MRT inf ([4]; male, SD, rat, plasma, po, 10 mg/kg, PO 10 mg/kg, Mean of 3 rats, read-out: MRT(0-∞)) was 6.3 h, the Tmax ([4]; male, SD, rat, plasma, po, 10 mg/kg, PO 10 mg/kg, Mean of 3 rats, read-out: Tmax) was 3.3 h and the half-life ([4]; male, SD, rat, plasma, po, 10 mg/kg, PO 10 mg/kg, individual rats 101-103) was 2.9 h. It also gave an AUC(0-t) ([4]; male, SD, rat, plasma, po, 10 mg/kg, PO 10 mg/kg, individual rats 101-103, read-out: AUC(0-t)) of 89.9 µg·h/mL, a Cmax ([4]; male, SD, rat, plasma, po, 10 mg/kg, PO 10 mg/kg, individual rats 101-103, read-out: Cmax) of 9.21 µg/mL and an MRT inf ([4]; male, SD, rat, plasma, po, 10 mg/kg, PO 10 mg/kg, individual rats 101-103, read-out: MRT(0-∞)) of 5.9 h. The MTD at 14 days (in vivo) was 5000 mg/kg.
